The values below come from paper PMC6274279, “Novel Cholinesterase Inhibitors Based on O-Aromatic N,N-Disubstituted Carbamates and Thiocarbamates” (Molecules, 2016).

Structures are written as SMILES. Like-named read-outs stand apart in the source and are kept apart here.

One may read the IC50 as the concentration needed to halve the response being measured.

One series deals with T1, BChE from equine serum (Equus caballus, UniProt P81908).
T1 construct: butyrylcholinesterase was from equine serum; from tissue; host or cells: equine serum
Nature of the series: Butyrylcholinesterase inhibition, spectrophotometric Ellman's method. It counts as biochemical. Conditions: for Selectivity to BChE: IC50 for AChE/IC50 for BChE; for Selectivity Index for BChE: ratio of cellular toxicity (HepG2 IC50) and IC50 for BChE. How it is done: (§1) The IC50 values were determined using the spectrophotometric Ellman’s method, which is a simple and rapid method to determine the SH and -S-S- groups content in proteins. This method is widely used for the evaluation of cholinesterase activity and screening the efficiency of ChE inhibitors. Cholinesterase activity is measured indirectly by quantifying the concentration of the 5-mercapto-2-nitrobenzoic acid ion formed in the reaction between the thiol reagent 5,5′-dithiobis(2-nitrobenzoic acid) and thiocholine, a product of substrate hydrolysis (i.e., acetylthiocholine, ATCh) by cholinesterases. Ellman’s method was modified slightly according to Zdrazilova et al..
(§2) The inhibitory potency of fifteen carbamates and five thiocarbamates was evaluated for AChE from electric eel and BChE from equine serum.
(§3) The IC50 values were determined using the spectrophotometric Ellman’s method. All of the tested compounds were dissolved in 0.01 M dimethyl sulphoxide and then diluted in demineralised water to 0.001 M and 0.0001 M. Ellman’s method was modified slightly according to Zdrazilova et al.. Acetylcholinesterase was obtained from electric eel (Electrophorus electricus L.) and butyrylcholinesterase was from equine serum.
On the technique in general: Ellman's reagent forms a yellow product with free thiols.

Another series has as its target T2, AChE from electric eel (Electrophorus electricus, UniProt O42275).
T2 construct: Acetylcholinesterase was obtained from electric eel (Electrophorus electricus L.); from tissue
As to the kind of experiment: Acetylcholinesterase inhibition, spectrophotometric Ellman's method. In kind it is biochemical, electric eel (Electrophorus electricus L.). The following applies: for Selectivity Index for AChE: ratio of cellular toxicity (HepG2 IC50) and IC50 for AChE. The protocol: as §1, §2, §3

For a further series, the system named is HepG2 cells. The following applies: cited from earlier work.
Setting [1] is: cytotoxicity determined previously, read-out: IC50 for HepG2.
Where [2] appears, read: approximate value, read-out: IC50 values (cytotoxicity, HepG2).

T2 sequence (O42275 24-633): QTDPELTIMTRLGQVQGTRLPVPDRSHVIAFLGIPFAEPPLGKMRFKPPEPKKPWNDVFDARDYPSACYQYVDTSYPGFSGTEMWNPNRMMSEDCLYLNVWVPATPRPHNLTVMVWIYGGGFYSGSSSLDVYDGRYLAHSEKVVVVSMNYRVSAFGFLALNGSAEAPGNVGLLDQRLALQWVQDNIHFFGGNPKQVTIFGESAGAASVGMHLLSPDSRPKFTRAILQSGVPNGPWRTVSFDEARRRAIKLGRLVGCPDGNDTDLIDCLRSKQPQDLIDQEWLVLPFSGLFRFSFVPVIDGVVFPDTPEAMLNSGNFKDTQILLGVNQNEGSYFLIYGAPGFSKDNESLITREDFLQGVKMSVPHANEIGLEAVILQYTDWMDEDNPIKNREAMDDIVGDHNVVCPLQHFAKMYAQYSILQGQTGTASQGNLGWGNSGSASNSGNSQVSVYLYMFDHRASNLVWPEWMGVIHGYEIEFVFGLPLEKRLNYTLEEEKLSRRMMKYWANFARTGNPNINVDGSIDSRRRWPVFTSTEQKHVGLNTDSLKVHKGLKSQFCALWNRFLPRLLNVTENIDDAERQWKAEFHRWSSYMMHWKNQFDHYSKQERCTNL
T1 sequence (P81908 whole entry): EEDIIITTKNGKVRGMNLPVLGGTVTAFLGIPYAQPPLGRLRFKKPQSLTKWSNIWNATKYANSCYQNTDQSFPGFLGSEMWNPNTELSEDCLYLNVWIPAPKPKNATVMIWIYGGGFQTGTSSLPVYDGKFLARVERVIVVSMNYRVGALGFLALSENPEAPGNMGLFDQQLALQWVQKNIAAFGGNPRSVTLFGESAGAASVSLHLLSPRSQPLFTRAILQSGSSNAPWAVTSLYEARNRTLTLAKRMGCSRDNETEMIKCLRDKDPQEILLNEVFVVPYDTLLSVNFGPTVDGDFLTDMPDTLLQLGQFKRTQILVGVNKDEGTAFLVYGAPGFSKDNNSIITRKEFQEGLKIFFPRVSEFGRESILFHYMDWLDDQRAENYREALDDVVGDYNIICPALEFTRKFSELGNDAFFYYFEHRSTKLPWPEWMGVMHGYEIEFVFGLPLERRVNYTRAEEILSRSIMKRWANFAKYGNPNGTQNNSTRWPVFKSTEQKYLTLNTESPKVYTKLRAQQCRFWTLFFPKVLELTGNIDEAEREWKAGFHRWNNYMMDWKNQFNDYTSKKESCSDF

With `CN(C)C(=O)Oc1ccc(Cl)cc1C(=O)Nc1ccc(Cl)cc1` [1a], on BChE from equine serum, the IC50 worked out at 88.4 ± 1.27 µM and the “Selectivity to BChE” value came to 0.8. The compound further returned an IC50 at AChE from electric eel of 72.9 ± 1.06 µM.
The corresponding values for `O=C(Nc1ccc(F)cc1)c1cc(Cl)ccc1OC(=O)N(c1ccccc1)c1ccccc1` [3d] are 15.63 ± 0.11 µM, 3.1 and 49 ± 3.88 µM.
Turning to `CN(C(=O)Oc1ccc(Cl)cc1C(=O)Nc1ccc(C(F)(F)F)cc1)c1ccccc1` [4c], the IC50 in the series on HepG2 cells (setting [1]) was greater than 100 µM; against BChE from equine serum, 1.97 ± 0.02 µM; at AChE from electric eel it was 49.9 ± 2.76 µM. Further, the “Selectivity Index for BChE” value at BChE from equine serum is “˃50.8”.
As to `CN(C)C(=S)Oc1ccccc1C(=O)Nc1ccccc1` [5b], on BChE from equine serum, the IC50 is 26.6 ± 2.78 µM and the “Selectivity to BChE” value worked out at 2.3. On AChE from electric eel, this compound displayed an IC50 of 61.9 ± 6.56 µM.
The corresponding values for `CN(C(=O)Oc1ccccc1C(=O)Nc1ccccc1)c1ccccc1` [5c] are 11.4 ± 0.48 µM, 4.8 and 55 ± 2.46 µM.
With `O=C(Nc1ccc(Br)cc1)c1cc(Cl)ccc1OC(=O)N(c1ccccc1)c1ccccc1` [2d], the IC50 on BChE from equine serum is 145 ± 29 µM; on AChE from electric eel it was 63.3 ± 0.95 µM.
For `O=C(Nc1ccc(Cl)cc1)c1cc(Cl)ccc1OC(=O)N(c1ccccc1)c1ccccc1` [1d], in that order: 106 ± 3.64 µM and 54.8 ± 1.43 µM.
For the compound `CN(C)C(=O)Oc1ccccc1C(=O)Nc1ccccc1` [5a], the IC50 in the series on HepG2 cells (setting [2]) was roughly 6000 µM; with HepG2 cells (setting [1]), 5990 µM; against BChE from equine serum it was 83.6 ± 6.84 µM; on AChE from electric eel it was 57.7 ± 1.6 µM. The “Selectivity to BChE” value at BChE from equine serum is 0.7. Further, the “Selectivity Index for BChE” value at BChE from equine serum amounted to 71.6.
For the compound `CN(C)C(=S)Oc1ccc(Cl)cc1C(=O)Nc1ccc(Br)cc1` [2b], the values for the IC50 against BChE from equine serum and against AChE from electric eel were 54.64 ± 0.42 µM and 59.1 ± 2.13 µM, respectively. At BChE from equine serum, the “Selectivity to BChE” value is 1.1.
The corresponding values for `CN(C)C(=S)Oc1ccc(Cl)cc1C(=O)Nc1ccc(F)cc1` [3b, O-{4-chloro-2-[(4-fluorophenyl)carbamoyl]phenyl} dimethylcarbamothioate] are 91.4 ± 5.45 µM, 89.7 ± 4.68 µM and 1.0.
For `CN(C(=O)Oc1ccc(Cl)cc1C(=O)Nc1ccc(F)cc1)c1ccccc1` [3c], the IC50 in the series with HepG2 cells (setting [1]) is 512 µM. At BChE from equine serum, the IC50 is 7.34 ± 0.14 µM, the “Selectivity to BChE” value came out at 8.5 and the “Selectivity Index for BChE” value stood at 69.8. In addition, at AChE from electric eel, half-maximal inhibition (IC50) required 62.5 ± 5.03 µM and the “Selectivity Index for AChE” value was found to be 8.2.
For `CN(C)C(=O)Oc1ccc(Cl)cc1C(=O)Nc1ccc(Br)cc1` [2a], on BChE from equine serum, the midpoint of inhibition, the IC50, lay at 54.21 ± 0.3 µM and the “Selectivity to BChE” value is 1.2. In addition, the IC50 against AChE from electric eel was found to be 62.4 ± 1.36 µM.
On to `CN(C)C(=O)Oc1ccc(Cl)cc1C(=O)Nc1ccc(F)cc1` [3a, 4-chloro-2-[(4-fluorophenyl)carbamoyl]phenyl dimethylcarbamate], for which the IC50 turned out to be 311 ± 4.5 µM against BChE from equine serum and 76.2 ± 2.87 µM against AChE from electric eel.
`CN(C)C(=O)Oc1ccc(Cl)cc1C(=O)Nc1ccc(C(F)(F)F)cc1` [4a, 4-chloro-2-{[4-(trifluoro-methyl)phenyl]carbamoyl}phenyl dimethylcarbamate]: the IC50 with HepG2 cells (setting [2]) was roughly 6000 µM; with HepG2 cells (setting [1]), 6510 µM; against BChE from equine serum, 28.1 ± 0.86 µM; against AChE from electric eel, 49 ± 0.54 µM. Also, the “Selectivity to BChE” value at BChE from equine serum is recorded as 1.7.
As to `O=C(Nc1ccc(C(F)(F)F)cc1)c1cc(Cl)ccc1OC(=O)N(c1ccccc1)c1ccccc1` [4d], the IC50 against BChE from equine serum stood at 49 ± 0.17 µM; against AChE from electric eel, 47.4 ± 2.78 µM. Moreover, the “Selectivity to BChE” value at BChE from equine serum came out at 1.0.
With `CN(C)C(=S)Oc1ccc(Cl)cc1C(=O)Nc1ccc(C(F)(F)F)cc1` [4b], the IC50 in the series on HepG2 cells (setting [1]) was 67.3 µM. For the same compound, on BChE from equine serum, the IC50 was 36.22 ± 0.28 µM, the “Selectivity to BChE” value was 1.2 and the “Selectivity Index for BChE” value is 1.9. At AChE from electric eel, this compound had an IC50 of 42 ± 0.55 µM.
In the case of `CN(C(=O)Oc1ccc(Cl)cc1C(=O)Nc1ccc(Br)cc1)c1ccccc1` [2c, 2-[(4-bromophenyl)carbamoyl]-4-chlorophenyl methyl(phenyl)carbamate], the IC50 in the series with HepG2 cells (setting [1]) was 945 µM. Further, on BChE from equine serum, the IC50 stood at 4.3 ± 0.51 µM and the “Selectivity to BChE” value came to 19.0. At AChE from electric eel, the IC50 was determined as 81.6 ± 2.92 µM and the “Selectivity Index for AChE” value is recorded as 11.6.
As for `CN(C(=O)Oc1ccc(Cl)cc1C(=O)Nc1ccc(Cl)cc1)c1ccccc1` [1c], the IC50 in the series with HepG2 cells (setting [1]) is 289 µM. Besides, at BChE from equine serum, the IC50 was determined as 4.2 ± 0.18 µM, the “Selectivity to BChE” value is listed as 17.8 and the “Selectivity Index for BChE” value is given as 68.8. Further, the IC50 against AChE from electric eel came to 74.8 ± 2.95 µM.
Turning to `O=C(Nc1ccccc1)c1ccccc1OC(=O)N(c1ccccc1)c1ccccc1` [5d, 2-(phenylcarbamoyl)phenyl diphenylcarbamate], the IC50 with HepG2 cells (setting [1]) is 211 µM; at BChE from equine serum, 1.6 ± 0.01 µM; against AChE from electric eel, 53.8 ± 4.26 µM. For the same compound, on BChE from equine serum, the “Selectivity Index for BChE” value is 131.9.
In the case of `CN(C)C(=S)Oc1ccc(Cl)cc1C(=O)Nc1ccc(Cl)cc1` [1b, O-{4-Chloro-2-[(4-chlorophenyl)carbamoyl]phenyl} dimethylcarbamothioate], in the series with HepG2 cells (setting [1]), the IC50 is 83.5 µM. In addition, at BChE from equine serum, the IC50 was 51.4 ± 1.65 µM, the “Selectivity to BChE” value is 0.8 and the “Selectivity Index for BChE” value was 1.6. On AChE from electric eel, the IC50 turned out to be 39 ± 1.11 µM and the “Selectivity Index for AChE” value was found to be 2.1.
